The target in assay [1] is Endoribonuclease Dicer (Homo sapiens) (UniProt Q9UPY3). Kind of assay: Inhibition of human recombinant Dicer-mediated pre-miR-29a without bulge loop processing assessed as reduction of mature miR-29a formation by Northern blot analysis (reference value: 51%). The following applies: concentration not given here.
Assay [2] shares this target. Kind of assay: Inhibition of human recombinant Dicer-mediated pre-miR-29a without internal loop processing assessed as reduction of mature miR-29a formation by Northern blot analysis (reference value: 30%). The conditions noted are these: concentration not given here.
Assay [3] shares this target. The assay can be described thus: Inhibition of human recombinant Dicer-mediated pre-miR-29a processing assessed as reduction of mature miR-29a formation by Northern blot analysis (reference value: 41%). The following applies: concentration not given here.
The target is the same in assay [4]. Kind of assay: Inhibition of human recombinant Dicer-mediated long dsRNA digestion assessed as 21- to 23-mer short RNA formation at 200 uM after 3 hrs by denaturing-PAGE analysis.
Assay [5] has the same target. Kind of assay: Inhibition of human recombinant Dicer-mediated pre-miR-29a processing assessed as reduction of mature miR-29a formation at 200 uM after 3 hrs by Northern blot analysis.

Activity calls are given as the source filed them. The rule behind the calls is not given here.

Endoribonuclease Dicer (Homo sapiens), sequence (Q9UPY3 whole entry): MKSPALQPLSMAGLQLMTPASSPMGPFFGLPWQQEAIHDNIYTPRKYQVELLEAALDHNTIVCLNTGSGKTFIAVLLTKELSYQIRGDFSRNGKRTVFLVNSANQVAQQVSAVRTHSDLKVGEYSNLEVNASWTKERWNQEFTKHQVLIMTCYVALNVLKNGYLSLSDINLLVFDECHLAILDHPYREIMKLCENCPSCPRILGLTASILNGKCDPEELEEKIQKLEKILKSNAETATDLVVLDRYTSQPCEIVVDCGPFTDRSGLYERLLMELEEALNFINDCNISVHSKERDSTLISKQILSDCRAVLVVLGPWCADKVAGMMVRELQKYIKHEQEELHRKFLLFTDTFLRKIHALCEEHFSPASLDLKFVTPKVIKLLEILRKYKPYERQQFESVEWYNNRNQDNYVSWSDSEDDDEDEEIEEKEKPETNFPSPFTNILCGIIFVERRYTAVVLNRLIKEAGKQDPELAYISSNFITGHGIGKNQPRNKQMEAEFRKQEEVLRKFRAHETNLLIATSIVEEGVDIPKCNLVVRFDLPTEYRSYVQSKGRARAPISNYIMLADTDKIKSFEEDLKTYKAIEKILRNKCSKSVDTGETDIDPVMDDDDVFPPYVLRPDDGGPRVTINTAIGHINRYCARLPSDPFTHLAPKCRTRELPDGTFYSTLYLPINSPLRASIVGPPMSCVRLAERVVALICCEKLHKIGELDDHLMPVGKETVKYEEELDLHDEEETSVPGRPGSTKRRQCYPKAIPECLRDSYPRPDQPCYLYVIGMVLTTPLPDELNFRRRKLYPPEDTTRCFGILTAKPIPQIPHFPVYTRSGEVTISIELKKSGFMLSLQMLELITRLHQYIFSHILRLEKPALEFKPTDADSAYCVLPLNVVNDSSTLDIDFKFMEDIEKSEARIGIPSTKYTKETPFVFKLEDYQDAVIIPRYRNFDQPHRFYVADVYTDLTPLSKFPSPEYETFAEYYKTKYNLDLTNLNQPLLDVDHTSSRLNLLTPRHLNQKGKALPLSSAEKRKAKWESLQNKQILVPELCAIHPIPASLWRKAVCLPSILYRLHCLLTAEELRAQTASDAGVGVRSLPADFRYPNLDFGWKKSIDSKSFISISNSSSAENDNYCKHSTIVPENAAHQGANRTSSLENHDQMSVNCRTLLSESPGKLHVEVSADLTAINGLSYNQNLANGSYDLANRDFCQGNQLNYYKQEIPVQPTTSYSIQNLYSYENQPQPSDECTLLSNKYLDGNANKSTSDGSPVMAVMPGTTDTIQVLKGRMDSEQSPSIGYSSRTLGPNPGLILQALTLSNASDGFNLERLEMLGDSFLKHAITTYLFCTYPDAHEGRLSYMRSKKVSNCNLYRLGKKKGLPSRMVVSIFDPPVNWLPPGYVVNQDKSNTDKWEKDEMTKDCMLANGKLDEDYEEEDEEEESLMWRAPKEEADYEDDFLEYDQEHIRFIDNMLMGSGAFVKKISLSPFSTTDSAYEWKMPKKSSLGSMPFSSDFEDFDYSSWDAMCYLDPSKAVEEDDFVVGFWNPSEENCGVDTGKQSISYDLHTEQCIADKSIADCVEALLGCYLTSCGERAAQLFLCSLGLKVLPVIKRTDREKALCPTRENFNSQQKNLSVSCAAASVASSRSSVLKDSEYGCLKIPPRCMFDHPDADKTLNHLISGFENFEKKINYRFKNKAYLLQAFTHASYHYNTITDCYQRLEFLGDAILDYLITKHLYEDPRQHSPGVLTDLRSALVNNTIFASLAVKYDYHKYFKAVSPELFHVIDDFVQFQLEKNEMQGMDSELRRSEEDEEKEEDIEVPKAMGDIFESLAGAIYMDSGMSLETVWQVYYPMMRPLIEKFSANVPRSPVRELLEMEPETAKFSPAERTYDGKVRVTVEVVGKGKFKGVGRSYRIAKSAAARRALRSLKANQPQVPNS

Turning to `NCCOc1ccc2sc3ccc(OCCN)cc3c(=O)c2c1`, the inhibition turned out to be 46% in assay [1], 22% in assay [2] and 23% in assay [3]. In addition, the inhibition result in assay [4] is “inactive”. Further, the inhibition entry in assay [5] was “Active”.
Regarding `CN(C)CCOc1ccc2sc3ccc(OCCN(C)C)cc3c(=O)c2c1`, the inhibition entry in assay [4] and in assay [5] was “inactive” each time.
Consider `CC(CN)Oc1ccc2oc3ccc(OC(C)CN)cc3c(=O)c2c1` (stereo not given), for which the inhibition result in assay [4] and in assay [5] was “inactive” in each case.
Regarding `NCCOc1ccc2oc3ccc(OCCN)cc3c(=O)c2c1`, the inhibition entry in assay [4] was “inactive”. Moreover, the inhibition result in assay [5] is “Active”.
In the same order, the values of `NCCCCCCOc1ccc2oc3ccc(OCCCCCCN)cc3c(=O)c2c1` are “inactive” and “inactive”.
As for `CN(C)CCOc1ccc2oc3ccc(OCCN(C)C)cc3c(=O)c2c1`, the inhibition result in assay [4] and in assay [5] was “inactive” each time.
